IC50, MIC and selectivity ratio data for eight compounds are collected here from ChEMBL document CHEMBL1177737, “Bioactive 1,4-dihydroxy-5-phenyl-2-pyridinone alkaloids from Septoria pistaciarum” (J Nat Prod, 2010).

SMILES strings stand for the structures. Values after ≈ are worked out from the molar mass of the structure shown. Active and inactive are the calls of the source. The rule behind the calls is not given here. Where only a bound is given, the exact number is not on record here.

Data set [1] relates to Candida albicans. Kind of data set: Antimicrobial activity against Candida albicans ATCC 90028 by CLSI method. The format is functional, organism-based.
Data set [2] relates to Aspergillus fumigatus. Kind of data set: Antimicrobial activity against Aspergillus fumigatus ATCC 90906 by CLSI method. The format is functional, organism-based.
The subject of data set [3] is Plasmodium falciparum. Put plainly: Antiplasmodial activity against chloroquine-sensitive Plasmodium falciparum D6 after 72 hrs by LDH assay. The format is functional, organism-based.
Data set [4] has as its system Plasmodium falciparum. Put plainly: Antiplasmodial activity against chloroquine-resistant Plasmodium falciparum W2 after 72 hrs by LDH assay. It counts as functional, organism-based.
The subject of data set [5] is Vero. Put plainly: Cytotoxicity against african green monkey Vero cell after 48 hrs by Neutral Red dye. It counts as cell-based, Chlorocebus sabaeus.
Data set [6] has as its system KB. Put plainly: Cytotoxicity against human KB cells after 48 hrs by Neutral Red dye. The format is functional, cell-based.
Data set [7] concerns BT-549. Put plainly: Cytotoxicity against human BT549 cells after 48 hrs by Neutral Red dye. It counts as functional, cell-based. The following applies: BT-549, 48 h.
The subject of data set [8] is SK-OV-3. Put plainly: Cytotoxicity against human SKOV3 cells after 48 hrs by Neutral Red dye. The format is functional, cell-based. Conditions: SK-OV-3, 48 h.
Data set [9] concerns Staphylococcus aureus. Kind of data set: Antimicrobial activity against Staphylococcus aureus ATCC 29213 by CLSI method. It counts as functional, organism-based.
The subject of data set [10] is Staphylococcus aureus. Put plainly: Antimicrobial activity against methicillin-resistant Staphylococcus aureus ATCC 33591 by CLSI method. The format is functional, organism-based.
The test system of data set [11] is Candida albicans. Kind of data set: Antimicrobial activity against Candida albicans ATCC 90028 at 20 ug/ml by CLSI method. The format is functional, organism-based.
The test system of data set [12] is Aspergillus fumigatus. Kind of data set: Antimicrobial activity against Aspergillus fumigatus ATCC 90906 at 20 ug/ml by CLSI method. It counts as functional, organism-based.
Data set [13] deals with SK-MEL. Put plainly: Cytotoxicity against human SK-MEL cells at 10 ug/ml after 48 hrs by Neutral Red dye. The format is functional, cell-based.
For data set [14], the system named is KB. Kind of data set: Cytotoxicity against human KB cells at 10 ug/ml after 48 hrs by Neutral Red dye. The format is functional, cell-based.
Data set [15] relates to BT-549. Kind of data set: Cytotoxicity against human BT549 cells at 10 ug/ml after 48 hrs by Neutral Red dye. It counts as functional, cell-based.
Data set [16] has as its system SK-OV-3. Kind of data set: Cytotoxicity against human SKOV3 cells at 10 ug/ml after 48 hrs by Neutral Red dye. The format is functional, cell-based.
Data set [17] can be described thus: Cytotoxicity against pig LLC-PK11 cells at 10 ug/ml after 48 hrs by Neutral Red dye. The format is cell-based, Sus scrofa.
Data set [18] relates to Vero. Put plainly: Cytotoxicity against african green monkey Vero cell at 10 ug/ml after 48 hrs by Neutral Red dye. It counts as cell-based, Chlorocebus sabaeus.
The nature of data set [19]: Selectivity index, ratio of IC50 for african green monkey (Cercopithecus aethiops) Vero cells to IC50 for chloroquine-sensitive Plasmodium falciparum D6. It counts as toxicity, cell-based. The following applies: read-out: Ratio IC50.
Data set [20] can be described thus: Selectivity index, ratio of IC50 for african green monkey (Cercopithecus aethiops) Vero cells to IC50 for chloroquine-resistant Plasmodium falciparum W2. The format is toxicity, cell-based. Conditions: read-out: Ratio IC50.
Data set [21] concerns Staphylococcus aureus. Put plainly: Antimicrobial activity against Staphylococcus aureus ATCC 29213 at 20 ug/ml by CLSI method. The format is functional, organism-based.
Data set [22] relates to Staphylococcus aureus. Put plainly: Antimicrobial activity against methicillin-resistant Staphylococcus aureus ATCC 33591 at 20 ug/ml by CLSI method. The format is functional, organism-based.
For data set [23], the system named is SK-MEL. Kind of data set: Cytotoxicity against human SK-MEL cells after 48 hrs by Neutral Red dye. The format is functional, cell-based.
Data set [24] can be described thus: Cytotoxicity against pig LLC-PK11 cells after 48 hrs by Neutral Red dye. Conditions: Sus scrofa, LLC-PK11, 48 h. It counts as cell-based.
Setting [25] is: Chlorocebus sabaeus, Vero, 48 h, read-out: IC50.

Turning to `C[C@@H]1[C@H](O)[C@@H](C)/C=C/C=C/C=C/C=C/C=C/C=C/C=C/[C@H](O[C@@H]2O[C@H](C)[C@@H](O)[C@H](N)[C@@H]2O)C[C@@H]2O[C@](O)(C[C@@H](O)C[C@@H](O)[C@H](O)CC[C@@H](O)C[C@@H](O)CC(=O)O[C@H]1C)C[C@H](O)[C@H]2C(=O)O` [AMPHOTERICIN B], the concentration for half-maximal inhibition (IC50) is 0.42 µg/mL (≈ 0.455 µM) in the data set on Candida albicans [1] and 1.16 µg/mL (≈ 1.26 µM) with Aspergillus fumigatus [2]. The minimum inhibitory concentration (MIC) with Candida albicans [1] and in the data set on Aspergillus fumigatus [2] was 2.5 µg/mL (≈ 2.71 µM) in each case.
On to `COn1cc(-c2ccccc2)c(O)c([C@@H]2O[C@H]([C@H](C)CCO)[C@@H](C)C[C@H]2C)c1=O`, for which the 50% inhibitory concentration (IC50) entry in the data set on Plasmodium falciparum [3] is recorded as “Not Active”; in the data set with Plasmodium falciparum [4], “Not Active”; with Vero [5] (vero), “Non-toxic”.
Regarding `COc1cccc2c1C(=O)c1c(O)c3c(c(O)c1C2=O)C[C@@](O)(C(=O)CO)C[C@@H]3O[C@H]1C[C@H](N)[C@H](O)[C@H](C)O1` [DOXORUBICIN], the concentration for half-maximal inhibition (IC50) in the data set on Vero [5] (setting [25]) is > 5 µg/mL; with KB [6], 1.35 µg/mL (≈ 2.48 µM); in the data set on BT-549 [7], 0.8 µg/mL (≈ 1.47 µM); in the data set on SK-OV-3 [8], 1.2 µg/mL (≈ 2.21 µM).
With `C[C@@H]1CC[C@H]2[C@@H](C)C(=O)O[C@@H]3O[C@@]4(C)CC[C@@H]1[C@]32OO4` [ARTEMISININ], the half-inhibitory concentration (IC50) entry in the data set on Vero [5] (vero) is “Non-toxic”.
With `COn1cc(-c2ccccc2)c(O)c([C@@H]2O[C@H]([C@H](C)CCOC(C)=O)[C@@H](C)C[C@H]2C)c1=O`, the concentration for half-maximal inhibition (IC50) entry in the data set on Plasmodium falciparum [3] is listed as “Not Active”; in the data set on Plasmodium falciparum [4], “Not Active”; in the data set on Vero [5] (vero) it was “Non-toxic”.
With `CCN(CC)CCCC(C)Nc1ccnc2cc(Cl)ccc12` (centres undefined) [CHLOROQUINE], the 50% inhibitory concentration (IC50) entry in the data set with Vero [5] (vero) is given as “Non-toxic”.
In the case of `CC[C@@H](C)[C@H]1O[C@@H](c2c(O)c(-c3ccccc3)cn(OC)c2=O)[C@H](C)C[C@@H]1C`, the IC50 entry in the data set with Plasmodium falciparum [3] was “Not Active”; in the data set with Plasmodium falciparum [4], “Not Active”; in the data set with Vero [5] (vero) it was “Non-toxic”; with Staphylococcus aureus [9] (Staphylococcus aureus, ATCC 29213, read-out: IC50), 2.79 µg/mL (≈ 7.24 µM); with Staphylococcus aureus [10] it was 2.99 µg/mL (≈ 7.76 µM); in the data set with Candida albicans [11] it was “Not Active”. Moreover, the IC50 entry (in the data set on Aspergillus fumigatus [12]; in the data set with SK-MEL [13]; with KB [14]; with BT-549 [15]; with SK-OV-3 [16]; in [17]) was “Not Active” throughout. For the same compound, the IC50 result in the data set on Vero [18] is given as “Not Active”. For the same compound, the MIC against Staphylococcus aureus [9] (Staphylococcus aureus, ATCC 29213) came out at 5 µg/mL (≈ 13 µM); in the data set on Staphylococcus aureus [10], 5 µg/mL (≈ 13 µM). For the same compound, the MIC result in the data set on Candida albicans [11] and with Aspergillus fumigatus [12] was “inactive” throughout.
Take `CC[C@@H](C)[C@H]1O[C@@H](c2c(O)c(-c3ccccc3)cn(O)c2=O)[C@H](C)C[C@@H]1C` [SEPTORIAMYCIN A]: the IC50 in the data set on Vero [5] (setting [25]) was 1.3 µg/mL (≈ 3.5 µM); in the data set with Candida albicans [1] it was 12.1 µg/mL (≈ 32.5 µM); in the data set with Aspergillus fumigatus [2] it was 8.76 µg/mL (≈ 23.6 µM); in the data set on Staphylococcus aureus [9], “Not Active”; in the data set with Staphylococcus aureus [21] it was “Not Active”; in the data set on Staphylococcus aureus [22], “Not Active”. For the same compound, the half-maximal inhibitory concentration (IC50) is 1.5 µg/mL (≈ 4.04 µM) in the data set on SK-MEL [23]; 5 µg/mL (≈ 13.5 µM) in the data set with KB [6]; 1.65 µg/mL (≈ 4.44 µM) in the data set on BT-549 [7]; 2.6 µg/mL (≈ 7 µM) in the data set with SK-OV-3 [8]; 1.65 µg/mL (≈ 4.44 µM) in data set [24]. Also, the results for the selectivity ratio in data set [19] and in data set [20] were 3.9 and 6.5, respectively. Moreover, the MIC result in the data set with Staphylococcus aureus [9], in the data set on Staphylococcus aureus [21] and in the data set with Staphylococcus aureus [22] was “inactive” throughout.

Usually IC50 stands for the concentration that inhibits the measured activity by half. A word on the MIC: it is the lowest concentration found to suppress growth.
